{
  "source": "paper PMC9182086",
  "about": "“Identification of New Non-BBB Permeable Tryptophan Hydroxylase Inhibitors for Treating Obesity and Fatty Liver Disease” (Molecules, 2022)",
  "key": {"CYP2C19": {"target": "T1, CYP2C19 (Homo sapiens, UniProt P33261)", "T1 construct": "purchased Promega Corp. V9880", "T1 sequence (P33261 whole entry)": "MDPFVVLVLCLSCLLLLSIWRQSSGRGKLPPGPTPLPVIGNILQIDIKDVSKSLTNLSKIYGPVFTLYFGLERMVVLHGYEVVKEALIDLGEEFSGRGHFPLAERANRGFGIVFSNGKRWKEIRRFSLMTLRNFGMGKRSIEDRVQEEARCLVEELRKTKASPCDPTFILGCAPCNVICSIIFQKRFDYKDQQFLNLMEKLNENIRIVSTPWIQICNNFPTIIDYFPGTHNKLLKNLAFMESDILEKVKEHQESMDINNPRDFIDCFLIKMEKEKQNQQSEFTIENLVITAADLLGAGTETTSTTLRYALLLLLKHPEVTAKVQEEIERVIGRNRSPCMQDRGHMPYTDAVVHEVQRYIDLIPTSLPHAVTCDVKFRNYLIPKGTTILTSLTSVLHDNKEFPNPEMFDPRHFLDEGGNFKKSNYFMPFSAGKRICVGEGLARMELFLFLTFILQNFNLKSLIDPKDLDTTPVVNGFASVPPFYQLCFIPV", "assay": "CYP inhibition assay (P450-Glo) CYP2C19", "format": "in vitro ADME", "details": "P450-Glo CYP2C19 Screening System (CYP enzyme), read-out: CYP inhibition 2C19", "excerpt": "(§1) Five major screening systems: P450-Glo CYP1A2 Screening System (Catalog# V9770), P450-Glo CYP2C9 Screening System (Catalog# V9790), P450-Glo CYP2C19 (Catalog# V9880), P450-Glo CYP 2D6 (Catalog# V9890), and P450-Glo CYP3A4 (Catalog# V9920) were attained from Promega Corp. (Madison, WI). α-naphthoflavone, sulfaphenazole, amitriptyline, quinidine, and ketoconazole were identified as positive control inhibitors for CYP1A2, CYP2C9, CYP2C19, CYP2D6, and CYP3A4, respectively. The CYP enzyme and substrate were combined in a potassium phosphate (KPO4) buffer and the reaction is initiated by adding an NADPH regenerating system. The volume of the mixture (12.5 μL in a 96-well plate) was combined with an equal volume of test compound solution and positive control inhibitor (12.5 μL added to make the volume 25 μL). The reaction of the NADPH regeneration system was initiated by adding a 2× concentration of NADPH solution. Then an equal volume of luciferin detection reagent was added. The plates were incubated at room temperature for 20 min and the luminescence signal was measured by a microplate reader device."}, "TPH1": {"target": "T2, TPH1 (Homo sapiens, UniProt P17752)", "T2 construct": "purchased BPS Bioscience", "T2 sequence (P17752 1-444)": "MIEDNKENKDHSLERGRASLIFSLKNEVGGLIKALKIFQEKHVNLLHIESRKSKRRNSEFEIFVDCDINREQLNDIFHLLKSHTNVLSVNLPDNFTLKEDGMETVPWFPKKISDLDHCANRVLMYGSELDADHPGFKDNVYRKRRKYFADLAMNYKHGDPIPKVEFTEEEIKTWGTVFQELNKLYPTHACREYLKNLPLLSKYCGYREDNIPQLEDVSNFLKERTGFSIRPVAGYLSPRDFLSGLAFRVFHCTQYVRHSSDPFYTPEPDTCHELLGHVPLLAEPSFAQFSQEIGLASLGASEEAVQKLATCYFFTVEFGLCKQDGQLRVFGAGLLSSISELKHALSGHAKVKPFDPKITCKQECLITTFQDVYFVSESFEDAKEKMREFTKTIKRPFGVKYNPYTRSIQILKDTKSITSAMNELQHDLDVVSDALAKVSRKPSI", "assay": "TPH1 enzyme inhibition, in vitro screening (BPS Bioscience kit, fluorescence)", "format": "biochemical", "procedure": "Consequently, the core structure of thienopyrimidine tyrosine (derivative 6) was selected as the starting point for the synthesis, evaluating the structure-activity relationships (SAR), and optimization of TPH1 inhibitors. […]\nIn vitro screening was performed as described previously [PMID: 33417443]. Briefly, TPH1 enzyme activity was measured with a commercially available kit (BPS Bioscience). Compounds were dissolved in DMSO (Sigma). Then, 10 μL of the compound was dispensed into a 96-well microplate, and 40 μL of the TPH1 enzyme solution (320 ng enzyme/reaction) was added. Then, 50 μL of the TPH1 reaction solution was added, and the microplate was sealed with aluminum foil. The microplate was immediately cooled to 4 °C, gently shaken, and incubated for 4 h. After a defined time, 10 μL of the TPH1 quench solution was added. Then, the fluorescence was measured with a Flexstation3 microplate reader at 300 nm for excitation and 360 nm for emission. All experiments were performed in triplicate."}, "[1]": {"assay": "Pharmacokinetic study in rats (iv and oral)", "format": "in vivo, male SD rats", "details": "SD, rat, plasma, 5 mg/kg", "procedure": "The pharmacokinetic study of 18i was performed using eight-week-old male SD rats (Orient Bio Inc., Seongnam, Korea). 18i and its prodrug 21 (5 mg/kg, 2 mL/kg) were administered via intravenous and oral routes. Blood samples were collected at 0.033, 0.16, 0.5, 1, 2, 4, 6, 8, and 24 h for intravenous injection at 0.15, 0.5, 1, 2, 4, 6, 8, and 24 h for oral dosing after drug administration, and then immediately centrifuged at 10,000× g for 3 min. The plasma concentrations of 18i were determined by LC-MS/MS. The plasma concentration-time profiles and pharmacokientic parameters were analyzed by a non-compartmental method using the nonlinear least-squares regression program WinNonlin 5.3 (Pharsight, Mountain View, CA, USA).\nThe LC-MS/MS analysis was performed on an Agilent 1200 series (Agilent Technologies, Santa Clara, CA, USA) with an API 4000 linear ion trap triple quadruple mass spectrometer (AB Sciex, CA, USA). The chromatographic separation of the drug was carried out using a kinetex column (100 × 2.1 mm, 3 μm, Phenomenex, CA USA) with a SecurityGuard C18 guard column (4 mm × 2.0 mm i.d., Phenomenex). The flow rate was 300 µL/min with a mobile phase consisting of 0.1% formic acid in water (eluent A) and 0.1% formic acid in acetonitrile (eluent B) by linear gradient condition as follows: starting with 0 to 0.3 min, B: 5%; 0.3 to 2.5 min, B: 5 → 95%; 2.5 to 2.9 min, B: 95%; 2.9 to 3.0 min, B: 95 → 5%, and then re-equilibrated to initial conditions until 3 min. The total run time was 6 min and the injection volume of 5 μL."}, "CYP2D6": {"target": "T3, CYP2D6 (Homo sapiens, UniProt P10635)", "T3 construct": "purchased Promega Corp. V9890", "T3 sequence (P10635 whole entry)": "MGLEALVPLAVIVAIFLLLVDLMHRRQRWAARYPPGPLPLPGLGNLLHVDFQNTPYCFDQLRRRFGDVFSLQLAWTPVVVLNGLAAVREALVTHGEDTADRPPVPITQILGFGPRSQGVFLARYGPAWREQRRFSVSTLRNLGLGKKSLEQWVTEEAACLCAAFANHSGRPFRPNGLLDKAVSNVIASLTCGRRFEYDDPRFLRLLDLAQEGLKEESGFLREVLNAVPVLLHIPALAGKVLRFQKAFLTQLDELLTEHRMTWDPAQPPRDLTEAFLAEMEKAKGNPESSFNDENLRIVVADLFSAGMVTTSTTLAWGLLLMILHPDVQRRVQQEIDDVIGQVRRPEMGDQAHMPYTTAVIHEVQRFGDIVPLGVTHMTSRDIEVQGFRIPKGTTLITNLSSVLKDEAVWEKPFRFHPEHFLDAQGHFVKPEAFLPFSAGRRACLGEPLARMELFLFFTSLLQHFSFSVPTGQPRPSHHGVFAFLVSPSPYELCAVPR", "assay": "CYP inhibition assay (P450-Glo) CYP2D6", "format": "in vitro ADME", "details": "P450-Glo CYP2D6 Screening System (CYP enzyme), read-out: CYP inhibition 2D6", "excerpt": "as §1"}, "[2]": {"assay": "Liver microsomal stability (rat)", "format": "in vitro ADME", "procedure": "For the liver microsomal activity, test compounds were incubated with rat and mouse’s liver microsomes, respectively, at a final concentration of 1 µM, in the presence of an NADPH regeneration system in 0.1 M potassium phosphate buffer (pH 7.4) for […] at 37 °C in shaking incubator. The microsomal reaction was terminated by adding four volumes of ice-cold acetonitrile and then centrifuged at 4000 rpm for 20 min. The supernatant was collected and analyzed by a LC-MS/MS system. The percentage of the parent compound remaining was calculated by comparing peak areas."}},
  "data": [
    {"smiles": "Cc1ccn(-c2cc(Cl)ccc2[C@@H](Oc2ncnc3c(-c4ccc(C[C@H](N)C(=O)O)cc4)csc23)C(F)(F)F)n1.Cl", "note": "[Compound 18i, (S)-2-amino-3-(4-(4-((R)-1-(4-chloro-2-(3-methyl-1H-pyrazol-1-yl)phenyl)-2,2,2-trifluoroethoxy)thieno[3,2-d]pyrimidin-7-yl)phenyl)propanoic acid hydrochloride]", "values": [
      {"measurement": "inhibition at 10 µM", "setting": "CYP2C19", "result": 46.5, "unit": "%"},
      {"measurement": "IC50", "setting": "TPH1", "result": 37, "unit": "nM"},
      {"measurement": "inhibition at 1 µM", "setting": "TPH1; 1 µM compound", "result": 95, "unit": "%"},
      {"measurement": "AUC(0-inf)", "setting": "[1]; male rats, iv, 5 mpk", "result": 1220, "unit": "ng·h/mL"},
      {"measurement": "AUC(0-t)", "setting": "[1]; male rats, iv, 5 mpk", "result": 1210, "unit": "ng·h/mL"},
      {"measurement": "clearance", "setting": "[1]; male rats, iv, 5 mpk", "result": 68.2, "unit": "mL/min/kg"},
      {"measurement": "half-life", "setting": "[1]; male rats, iv, 5 mpk", "result": 1.85, "unit": "h"},
      {"measurement": "Vd", "setting": "[1]; male rats, iv, 5 mpk, read-out: Vss", "result": 2.16, "unit": "L/kg"},
      {"measurement": "AUC", "setting": "[1]; male, intravenous, rats, read-out: AUC (text, kind not stated)", "result": 1200, "unit": "ng·h/mL"},
      {"measurement": "inhibition at 10 µM", "setting": "CYP2D6", "result": 24.6, "unit": "%"},
      {"measurement": "Liver microsomal stability (rat), parent remained", "setting": "[2]; after 30 min incubation, 1 µM", "result": "99% parent remained after 30 min incubation"},
      {"measurement": "Liver microsomal stability, remained", "setting": "[2]; after incubation for 30 min, species not given", "result": 99, "unit": "%"}
    ]}
  ]
}
